Source: publication PMC7411887, “New Paracyclophanylthiazoles with Anti-Leukemia Activity: Design, Synthesis, Molecular Docking, and Mechanistic Studies” (Molecules, 2020)
Values joined by “and” are separate entries in the source; they are usually repeats but may differ in a detail not shown here. Equal values may be shown once.

Legend:
OVCAR-3 = assay: NCI single-dose screen (SRB); format: cell-based; conditions: Homo sapiens; Ovarian Cancer OVCAR-3; 10^−5 M; read-out: Growth inhibition percentage
How it was run: (§1)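 Percent growth vs. untreated control cells, SRB dye end-point measured spectrophotometrically, after 48 h with compound at 10^−5 M; triplicate runs.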

SK-OV-3 = assay: NCI single-dose screen (SRB); format: cell-based; conditions: Homo sapiens; Ovarian Cancer SK-OV-3; 10^−5 M; read-out: Growth inhibition percentage
How it was run: as §1

CCRF-CEM = assay: NCI single-dose screen (SRB); format: cell-based; conditions: Homo sapiens; Leukemia CCRF-CEM; 10^−5 M; read-out: Growth inhibition percentage
How it was run: as §1

SF-295 = assay: NCI single-dose screen (SRB); format: cell-based; conditions: Homo sapiens; CNS Cancer SF-295; 10^−5 M; read-out: Growth inhibition percentage
How it was run: as §1

MCF7 = assay: NCI single-dose screen (SRB); format: cell-based; conditions: Homo sapiens; Breast Cancer MCF7; 10^−5 M; read-out: Growth inhibition percentage
How it was run: as §1

β-tubulin = target: T1, β-tubulin (Homo sapiens, UniProt P07437); assay: Tubulin polymerization inhibition (ELISA for TUBb, SR cell line); format: cell-based; conditions: IC50 ± SEM
T1 construct: endogenous in cells; host or cells: leukemia SR cell line
T1 sequence (P07437 whole entry): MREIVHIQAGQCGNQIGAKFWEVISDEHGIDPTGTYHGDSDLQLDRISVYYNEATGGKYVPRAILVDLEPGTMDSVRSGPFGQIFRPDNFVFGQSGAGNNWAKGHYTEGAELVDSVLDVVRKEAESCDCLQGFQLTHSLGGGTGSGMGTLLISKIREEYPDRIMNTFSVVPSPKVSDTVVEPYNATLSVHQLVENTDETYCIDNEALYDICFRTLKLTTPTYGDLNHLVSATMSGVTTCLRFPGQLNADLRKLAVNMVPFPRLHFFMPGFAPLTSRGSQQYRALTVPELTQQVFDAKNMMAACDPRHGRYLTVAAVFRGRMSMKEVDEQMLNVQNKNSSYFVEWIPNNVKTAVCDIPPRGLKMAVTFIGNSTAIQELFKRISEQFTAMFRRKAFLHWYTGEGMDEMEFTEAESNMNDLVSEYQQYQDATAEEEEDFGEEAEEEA
T1 sequence (P68363 whole entry partner): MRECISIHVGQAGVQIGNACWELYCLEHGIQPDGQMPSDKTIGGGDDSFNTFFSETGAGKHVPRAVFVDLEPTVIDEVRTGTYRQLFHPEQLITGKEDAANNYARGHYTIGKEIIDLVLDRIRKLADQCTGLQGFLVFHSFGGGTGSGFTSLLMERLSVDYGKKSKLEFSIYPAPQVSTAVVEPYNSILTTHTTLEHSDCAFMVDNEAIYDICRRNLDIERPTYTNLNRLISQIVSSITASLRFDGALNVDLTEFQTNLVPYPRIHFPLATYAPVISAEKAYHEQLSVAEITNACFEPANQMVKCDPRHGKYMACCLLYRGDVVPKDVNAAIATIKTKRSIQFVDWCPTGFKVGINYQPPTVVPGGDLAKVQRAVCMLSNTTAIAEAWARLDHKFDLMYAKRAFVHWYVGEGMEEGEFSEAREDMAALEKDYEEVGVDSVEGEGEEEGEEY
Experimental: The in vitro kinetics of microtubule assembly was measured using an ELISA kit for TUBb (Cloud-Clone. Corp.) on the leukemia SR cell line. The compounds tested were 3a–f and colchicine. Briefly, growing cells from the SR cell line were trypsinized, counted, and seeded at the appropriate densities into 96-well microtiter plates.
4. Tubulin polymerization inhibitory activity […]
bind the biotin labeled antibody. […]
spectrophotometrically at a wavelength of 450 nm ± 10 nm. The decrease of color intensity was measured as a sign for tubulin inhibition. The results were calculated as the concentration of TUBb available for antibody reaction, and the percent inhibition of TUBb was calculated for each sample as a percent of control. In vitro kinetics of microtubule assembly was measured using ELISA kit for TUBb (Cloud-Clone. Corp.) on SR cell line. Briefly, growing cells from Leukemia SR cell lines were trypsinized, counted and seeded at the appropriate densities into 96-well microtiter plates. Cells then were incubated in a humidified atmosphere at oC for 24 h. The standards, the tested compounds, and the control colchicine were diluted to designated concentrations. On the 96-well microtiter plates standard or sample was added to each well in […] and incubated at oC for 2 h. The solution was aspirated, and […] of prepared detection reagent A was added to each well. Incubation was done at oC for 2 h. After washing […] of prepared Detection Reagent B was added and incubation was continued at oC for 30 min. Five washings were done, then […] of 3,30,5,50-tetramethylbenzidine (TMB) substrate solution was added and incubated at oC for 15-25 min. Stop solution was added in […].
Optical density (O.D.) was measured at 450 nm using micro-plate reader (Spectromax Plus 96 well plate spectrophotometer). […]
the treated cells compared to that of the untreated control cells.
5. Multidrug resistance Assay
Before adding to wells, equilibrate the SABC working solution and TMB substrate for at least 30 […]
When diluting samples and reagents, they must be mixed completely and evenly. It is recommended plotting a standard curve for each test.

| Structure (SMILES) | inhibition at 10 µM (OVCAR-3) | inhibition at 10 µM (SK-OV-3) | inhibition at 10 µM (CCRF-CEM) | inhibition at 10 µM (SF-295) | inhibition at 10 µM (MCF7) | melting point | IC50 (β-tubulin) |
| --- | --- | --- | --- | --- | --- | --- | --- |
| COC(=O)/C=C1/S/C(=N/NC(=O)c2cc3ccc2CCc2ccc(cc2)CC3)N(C2CC2)C1=O [Compound 3f] | 15.9% | 0% | 41.4% | 8.8% | 36.4% | 180 to 182 °C | – |
| COC(=O)C=C1SC(=NNC(=O)c2cc3ccc2CCc2ccc(cc2)CC3)N(c2ccccc2)C1=O [Compound 3a] | 106% | 0% | 87% | 41% | 76.8% | – | 4.97 ± 0.11 µM |
| COC(=O)C=C1SC(=Nc2cccnc2)N(NC(=O)c2cc3ccc2CCc2ccc(cc2)CC3)C1=O [Compound 3c, Methyl (E)-2-((E)-3-[2.2]paracyclophanyl)amido-4-oxo-2-(pyridin-3-ylimino)-thiazolidin-5-ylidene)acetate] | 4.51% | 0% | 31.3% | 5.63% | 26.8% | 262 to 264 °C (dec.) | 8.38 µM and 8.28 µM |
| C=CCN1C(=O)C(=CC(=O)OC)SC1=NNC(=O)c1cc2ccc1CCc1ccc(cc1)CC2 [Compound 3d] | 13.6% | 0% | 77.1% | 6.42% | 48.5% | 241 to 243 °C | 14.8 ± 0.32 µM |
| COC(=O)C=C1SC(=NNC(=O)c2cc3ccc2CCc2ccc(cc2)CC3)N(Cc2ccccc2)C1=O [Compound 3b] | 79.7% | 0% | 96.2% | 10.6% | 67.3% | 175 to 177 °C | 8.38 ± 0.18 µM |
| CCN1C(=O)C(=CC(=O)OC)SC1=NNC(=O)c1cc2ccc1CCc1ccc(cc1)CC2 [Compound 3e] | 7.09% | 0% | 66.1% | 3.13% | 56.3% | 220 to 222 °C | 6.61 ± 0.14 µM |
